Values joined by “and” are separate entries in the source; they are usually repeats but may differ in a detail not shown here. Equal values may be shown once. “Also recorded” adds a separate entry of the source.
Key:
Crl:CD-1(ICR) BR mice = experiment: Dose range finding study (mortality); format: in vivo, mouse; conditions: oral gavage
Description: Since no appropriate toxicity data were available (e.g., the same species, strain, route, etc.), a dose range finding study was performed using the same treatment regimen used in the micronucleus assay. Young adult male and female mice of the Crl:CD-1®(ICR) BR strain from Charles River Laboratories, Raleigh, N.C., were used in this study. Dose levels of 0, 125, 250, and 500 mg/kg were tested.

[1] = test system: polychromatic erythrocyte cells in Crl:CD-1(ICR) BR mouse bone marrow; experiment: In vivo mouse micronucleus assay; conditions: for statistically significant increase in micronucleated PCEs: 31.25, 62.5 and 125 mg/kg; for signs of clinical toxicity in treated animals: mice dosed up to and including 125 mg/kg
Description: The objective of this study was to evaluate 14-hydroxycodeinone for in vivo clastogenic activity and/or disruption of the mitotic apparatus by detecting micronuclei in polychromatic erythrocyte cells in Crl:CD-1®(ICR) BR mouse bone marrow. The assay design was based on Organization for Economic Co-operation and Development (OECD) guideline 474, updated and adopted Jul. 21, 1997. The study was conducted in compliance with the Good Laboratory Practice regulations as set forth by the FDA.
The micronucleus test can serve as a rapid screen for clastogenic agents and test articles which interfere with normal mitotic cell division (Schmid, W., The micronucleus test. Mutat. Res. 31, 9-15, 1975; Heddle et al., The introduction of micronuclei as a measure of genotoxicity. Mutat. Res. 123, 61-118, 1983). Micronuclei are small chromatin bodies, consisting of entire chromosomes and/or acentric chromosome fragments, which lag behind at mitotic anaphase. At telophase, these multiple micronuclei are in the cytoplasm. During maturation of hematopoietic cells from erythoblasts to erythocytes, the nucleus is extruded. Micronuclei, if present, persist in the cytoplasm of these non-nucleated cells. Detection of micronuclei in non-nucleated cells eliminates the need to search for metaphase spreads in treated cell populations. Test articles affecting spindle-fiber function or formation can be detected through micronucleus induction. In this study, enucleated immature red blood cells or polychromatic erythrocytes (PCEs) were analyzed for the presence of micronuclei.
The micronucleus assay used 48 animals approximately 8 weeks old at the […], with a weight range of 28.4 to 35.3 g.
At least 2000 erythrocytes (PCEs) per animal were analyzed for the presence of […] was assessed by scoring the number of PCEs and ic erythrocytes (NCEs) in at least the first 500 erythrocytes for each […] of the micronuleus assay results is presented in the following table.

COc1ccc2c3c1OC1C(=O)C=C[C@@]4(O)[C@@H](C2)N(C)CC[C@]314 (some centres unmarked) [14-hydroxycodeinone]
Number of Mice (died/total) (Crl:CD-1(ICR) BR mice; 125 mg/kg): 0/6
Number of Mice (died/total) (Crl:CD-1(ICR) BR mice; 250 mg/kg): 3 of 6 and 3/6
Number of Mice (died/total) (Crl:CD-1(ICR) BR mice; 500 mg/kg): 14 of 18 and 14/18
PCE:NCE mean ratio ([1]; 31.25 mg/kg oral gavage, harvest 24 Hours): 0.74
PCE:NCE mean ratio ([1]; 62.5 mg/kg oral gavage, harvest 24 Hours): 0.64
PCE:NCE mean ratio ([1]; 125 mg/kg oral gavage, harvest 24 Hours): 0.66
PCE:NCE mean ratio ([1]; 125 mg/kg oral gavage, harvest 48 Hours): 0.36
bone marrow toxicity (PCE:NCE ratio versus control 0.60) ([1]; 125 mg/kg, 48-hour group, difference not statistically significant at p≦0.05): suggesting induced bone marrow toxicity
statistically significant increase in micronucleated PCEs [1]: no signs of clinical toxicity or a statistically significant increase in micronucleated PCEs
statistically significant increase in micronucleated PCEs ([1]; listed as 14-Hydroxycodeinone): did not induce statistically significant increases
outcome of the mouse bone marrow micronucleus assay (mutagenic properties) ([1]; doses up to 125 mg/kg in mice): does not exhibit mutagenic properties; also recorded: negative
signs of clinical toxicity in treated animals [1]: no signs of clinical toxicity
signs of clinical toxicity in treated animals ([1]; listed as 14-hyrdroxycodeinone): did not induce signs of clinical
cytotoxicity to the bone marrow (PCE:NCE ratios versus control) ([1]; treated groups overall): lack of cytotoxicity to the bone marrow

Source: patent US20070117826A1, “Pharmaceutical formulations comprising ibuprofen, oxycodone, and 14-hydroxycodeinone” (Forest Laboratories, Inc., priority 2005, published 2007)
